“Also recorded” adds a separate entry of the source.
Tests used:
Ba/F3 TelJAK2 cells = experiment: Subcutaneous tumour model of Ba/F3 TelJAK2 cells in nude mice; format: in vivo, mouse; details: for tumour volumes compared to Vehicle Control Treated Group: after 14 days of dosing; for mean percentage T/C: dosing day 14
Procedure: Dosing commenced 11 days post-tumour cell inoculation, when tumours were palpable (mean tumour volume of 6 mm^3). Tumour dimensions were measured twice weekly.

[1] = system: growth hormone-stimulated insulin-like growth factor-1 (IGF-1); experiment: Growth hormone-stimulated IGF-1 concentrations in mouse plasma; format: in vivo; details: female C3/H mice, 50 mg/kg oral gavage 8 h and 30 min prior to GH, 6 h post-GH
Procedure: Blood samples were collected 6 h post-GH administration, and plasma IGF-1 concentrations measured using an ELISA for mouse IGF-1 (R & D Systems). Different superscripts denote significant differences (p<0.05) between groups detected by one-way ANOVA and Bonferroni's test post-hoc.

[2] = system: IL-3 induced STAT5 phosphorylation in BaF3 cells; experiment: Western blot of IL-3 induced STAT5 phosphorylation in BaF3 cells; format: cell-based, murine; details: 2 hours compound, mouse IL-3 5 ng/ml 15 minutes
Procedure: The Western blots were treated with a STAT5 phospho-specific antibody and exposed to film for 5 minutes (top blot) and 1 minute (middle blot).
The murine pro-B cell line BaF3 was routinely maintained in RPMI 1640 media containing 10% FCS. On the day of the experiment, cells were washed twice in PBS, and resuspended in RPMI 1640 media containing 0.1% FCS. […] Mouse IL-3 was then added to cells at a final concentration of 5 ng/ml for 15 minutes. Cells were then placed on ice and washed twice in ice-cold PBS. Washed cell pellets were snap-frozen in liquid nitrogen and stored at −80° C.
Cell pellets were lysed on ice in RIPA buffer, and lysates clarified by centrifugation (20,000×g, 4° C., 5 min). The protein concentration of lysates was determined by the Bradford method, and equal amounts of protein (60 μg/lane) were separated by SDS-PAGE. Protein was then transferred to PVDF, and Western blotting performed using an antibody that specifically recognizes STAT5 phosphorylated at tyrosine 694. The membrane was then stripped and reprobed with an antibody that recognizes total STAT5 protein.

[3] = system: STAT5 phosphorylation in HEL 92.1.7 cells; experiment: Intracellular flow cytometric (FACS) analysis of STAT5 phosphorylation in HEL cells; format: cell-based, human; details: HEL 92.1.7 cells, 0.25, 0.5, 1, or 2 μM, 2 hours
Procedure: After treatment the cells were stained with mouse monoclonal anti-STAT5 (Y694) PE antibody and analyzed using fluorescence activated cell sorting (FACS). The histograms are shaded according to the fold change in median fluorescence relative to the isotype control (Isocont lane in clear outline).
The human erythroleukemic cell line, HEL 92.1.7 (ATCC, TIB-180), was grown in RPMI 1640 containing 10% PCS supplemented with 1 mM sodium pyruvate. For phosphor-STAT 5 determination, HEL cells were grown in RPMI 1640+1% PCS for 18 hours at 37° C. and 2×10^5 cells per assay point were exposed to DMSO/test compounds for 2 hours at 37° C. The cells were centrifuged at 1300 rpm for 3 minutes and fixed in paraformaldehyde (2% final concentration) for 15 minutes at 37° C. After centrifugation, cells were permeabilized in 90% methanol at 4° C. for 30 minutes. […]
Staining proceeded for 1 hour at room temperature in the dark, followed by 3 washes in PBS-2% FCS. […] The median fluorescence intensity (MFI) was used to determine fold change upon treatment of cells with specific inhibitor compounds, calculated as the MFIstimulated/MFIunstimulated ratio for the phosphospecific antibody fluorescence channel (FL2).

N#CCNC(=O)c1ccc(-c2ccnc(Nc3ccc(N4CCOCC4)cc3)n2)cc1 [Compound 3, N-(cyanomethyl)-4-(2-(4-morpholinophenyl-amino)pyrimidin-4-yl)benzamide]
tumour volumes compared to Vehicle Control Treated Group (Ba/F3 TelJAK2 cells; 5 mg/kg): not different | mean percentage T/C (Ba/F3 TelJAK2 cells; 5 mg/kg/day oral gavage): 82% | mean percentage T/C (Ba/F3 TelJAK2 cells; 10 mg/kg b.i.d. oral gavage): 25% | tumour volumes compared to Vehicle Control Treated Group (Ba/F3 TelJAK2 cells; 10 mg/kg b.i.d., t-test p<0.05): smaller tumour volumes | mean percentage T/C (Ba/F3 TelJAK2 cells; 20 mg/kg b.i.d. oral gavage): 39% | tumour volumes compared to Vehicle Control Treated Group (Ba/F3 TelJAK2 cells; 20 mg/kg b.i.d., t-test p<0.05): smaller tumour volumes | plasma IGF-1 concentration [1]: marked decrease | effect on IL-3 induced STAT5 phosphorylation (Western blot) [2]: dose-dependent effect; also recorded: decrease in STAT5 phosphorylation | effect on STAT5 phosphorylation (FACS) [3]: dose-dependent effect

From patent US12570614B2, “Phenyl amino pyrimidine compounds and uses thereof” (GlaxoSmithKline LLC, priority 2007, dated 2026)
